Reference: US10421761B2, “Compounds for kinase modulation, and indications therefor” (Plexxikon Inc., priority 2013, dated 2019)

Tests used:
BRAF V600E = target: T1, BRAF V600E (Homo sapiens, UniProt P15056, V600E); test: BRAF V600E biochemical kinase activity assay (AlphaScreen, biotin-MEK1 substrate); details: BRAF V600E biochemical inhibitory activity
T1 construct: purchased Upstate Biotechnology

B9 (HRAS Q61L) cell line = test: B9 P-ERK cell activation assay (AlphaScreen); type: cell-based, mouse; details: Mus musculus; P-ERK cell activation, B9; numeric bounds; read-out: Cell activity (EC50 μM) B9_pERK
How it was run: (§1)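 Mouse B9 (HRAS-driven skin SCC) or human IPC-298 melanoma cells treated with an 8-point compound titration for one hour at 37° C., then lysed. ERK1/2 phosphorylation at Thr202/Tyr204 read by AlphaScreen with total-ERK and phospho-ERK antibodies.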

[1] = tested on: IPC-298 (NRAS Q61L) cell line; test: IPC-298 P-ERK cell activation assay (AlphaScreen); type: cell-based, human; details: Homo sapiens; P-ERK cell activation, IPC-298; numeric bounds; read-out: Cell activity (EC50 μM) IPC-298_P-ERK
How it was run: as §1

[2] = tested on: A375 (BRAF V600E) cell line; test: A375 P-ERK inhibition assay (AlphaScreen); type: cell-based, human; details: Homo sapiens, A-375; A375_P-ERK
How it was run: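 A375 cells treated with 8-point compound titration for 1 h at 37° C, then lysed. ERK1/2 Thr202/Tyr204 phosphorylation measured by AlphaScreen, using biotinylated total-ERK antibody on donor beads and phospho-specific antibody on acceptor beads.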

T1 sequence (P15056 whole entry V600E): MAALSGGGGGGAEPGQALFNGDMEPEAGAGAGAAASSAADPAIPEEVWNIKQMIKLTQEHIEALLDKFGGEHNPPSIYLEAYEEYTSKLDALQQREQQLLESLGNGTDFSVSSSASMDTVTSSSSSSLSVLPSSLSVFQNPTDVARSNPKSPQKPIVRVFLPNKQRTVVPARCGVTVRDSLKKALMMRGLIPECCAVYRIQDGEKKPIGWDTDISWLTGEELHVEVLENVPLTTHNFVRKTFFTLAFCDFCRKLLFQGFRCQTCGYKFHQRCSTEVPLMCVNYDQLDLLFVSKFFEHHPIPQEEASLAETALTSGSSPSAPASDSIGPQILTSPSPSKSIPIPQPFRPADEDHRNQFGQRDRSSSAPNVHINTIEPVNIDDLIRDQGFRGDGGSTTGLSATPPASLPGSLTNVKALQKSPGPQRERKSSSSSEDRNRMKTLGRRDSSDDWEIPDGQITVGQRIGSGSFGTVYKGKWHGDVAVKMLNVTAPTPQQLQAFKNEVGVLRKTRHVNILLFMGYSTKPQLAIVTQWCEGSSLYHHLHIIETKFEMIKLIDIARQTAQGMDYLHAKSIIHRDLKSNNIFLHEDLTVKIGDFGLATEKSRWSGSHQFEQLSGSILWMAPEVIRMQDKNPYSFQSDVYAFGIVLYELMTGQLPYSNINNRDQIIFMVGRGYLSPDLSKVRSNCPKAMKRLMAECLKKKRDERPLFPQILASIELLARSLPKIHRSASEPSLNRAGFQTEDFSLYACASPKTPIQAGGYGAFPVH

IC50 (BRAF V600E) [µM]	EC50 (B9 (HRAS Q61L) cell line) [µM]	EC50 [1] [µM]	IC50 [2] [µM]	Structure (SMILES)
0.0001 to 1	> 10	> 10	< 1	O=C(c1cc(Cl)cc(NS(=O)(=O)N2CCCC2)c1F)c1c[nH]c2ncc(-c3cnc(C4CC4)nc3)cc12 [P-2180, N-(5-chloro-3-(5-(2-cyclopropylpyrimidin-5-yl)-1H-pyrrolo[2,3-b]pyridine-3-carbonyl)-2-fluorophenyl)pyrrolidine-1-sulfonamide]
1 to 10	> 10	> 10	> 10	O=C(c1cc(C(F)(F)F)cc(NS(=O)(=O)N2CCCC2)c1F)c1c[nH]c2ncc(-c3cnc(C4CC4)nc3)cc12 [P-2179, N-[3-[5-(2-cyclopropylpyrimidin-5-yl)-1H-pyrrolo[2,3-b]pyridine-3-carbonyl]-2-fluoro-5-(trifluoromethyl)phenyl]pyrrolidine-1-sulfonamide]
0.0001 to 1	> 10	> 10	1 to 10	COC(=O)C(CC(C)C)Nc1ncnc2[nH]cc(C(=O)c3cccc(NS(=O)(=O)N4CCCC4)c3F)c12 (stereo not shown) [P-2107, methyl 2-[[5-[2-fluoro-3-(pyrrolidin-1-ylsulfonylamino)benzoyl]-7H-pyrrolo[2,3-d]pyrimidin-4-yl]amino]-4-methyl-pentanoate]
0.0001 to 1	> 10	> 10	0.0001 to 1	CCN(C)S(=O)(=O)Nc1ccc(F)c(C(=O)c2c[nH]c3ncnc(N[C@H](C)C4CC4)c23)c1F [P-2118, 4-[[(1R)-1-cyclopropylethyl]amino]-5-[3-[[ethyl(methyl)sulfamoyl]amino]-2,6-difluoro-benzoyl]-7H-pyrrolo[2,3-d]pyrimidine]

More lines, now with the values behind:

Structure (SMILES)	IC50 (BRAF V600E) [µM]	EC50 (B9 (HRAS Q61L) cell line) [µM]	EC50 [1] [µM]	IC50 [2] [µM]
CCN(C)S(=O)(=O)Nc1cccc(-c2nc(C(C)(C)C)sc2-c2ccnc(OC)n2)c1F [P-2088, 2-tert-butyl-4-[3-[[ethyl(methyl)sulfamoyl]amino]-2-fluoro-phenyl]-5-(2-methoxypyrimidin-4-yl)thiazole]	0.0001 to 1	> 10	> 10	0.0001 to 1
O=C(c1c(F)ccc(NS(=O)(=O)C2CCC2)c1F)c1c[nH]c2nccc(Cl)c12 [Compound P-2008, N-[3-(4-chloro-1H-pyrrolo[2,3-b]pyridine-3-carbonyl)-2,4-difluoro-phenyl]cyclobutanesulfonamide]	0.0001 to 1	> 10	> 10	0.0001 to 1
CCC(C)S(=O)(=O)Nc1ccc(F)c(C(=O)c2c[nH]c3nccc(C#N)c23)c1F (stereo not shown) [P-2020, N-[3-(4-cyano-1H-pyrrolo[2,3-b]pyridine-3-carbonyl)-2,4-difluoro-phenyl]butane-2-sulfonamide]	0.0001 to 1	> 10	> 10	0.0001 to 1
N#Cc1ccnc2[nH]cc(C(=O)c3c(F)ccc(NS(=O)(=O)C4CCCCC4)c3F)c12 [P-2018, N-[3-(4-cyano-1H-pyrrolo[2,3-b]pyridine-3-carbonyl)-2,4-difluoro-phenyl]cyclohexanesulfonamide]	0.0001 to 1	> 10	> 10	> 10
O=C(c1cccc(NS(=O)(=O)N2CCCC2)c1F)c1c[nH]c2ncnc(NC3CCC3)c12 [P-2081, N-[3-[4-(cyclobutylamino)-7H-pyrrolo[2,3-d]pyrimidine-5-carbonyl]-2-fluoro-phenyl]pyrrolidine-1-sulfonamide]	0.0001 to 1	> 10	> 10	0.0001 to 1
O=C(c1cccc(NS(=O)(=O)N2CCCC2)c1F)c1c[nH]c2ncnc(NC3(C(=O)O)CC3)c12 [P-2097, 1-[[5-[2-fluoro-3-(pyrrolidin-1-ylsulfonylamino)benzoyl]-7H-pyrrolo[2,3-d]pyrimidin-4-yl]amino]cyclopropanecarboxylic acid]	1 to 10	> 10	> 10	> 10
